Assay results from patent US12202834B2, “Solid state forms of oclacitinib maleate” (VationPharma B.V., priority 2019, dated 2025).
Values joined by “and” are separate entries in the source; they are usually repeats but may differ in a detail not shown here. Identical values can stand only once. Counter-ions that a name gives are not always drawn.

Tests used:
Assay type in all cases: physicochemical
[1] = Stability tests of solid forms (storage, solid form analysed by XRPD); conditions: for Relative humidity at which the solid form is stable / can be stored: general statement in description
Procedure: The stability of the solid forms of oclacitinib obtained was tested at three different conditions, i.e. storage at 25° C. at 0% relative humidity, 40° C. at 75% rH and 25° C. at 100% rH. Alternatively or additionally, the stability of the solid forms of oclacitinib obtained was tested at 25° C. at 25% rH.

[2] = Hygroscopicity of solid state form; conditions: general statement in description
[3] = Thermodynamic solubility test (saturated solution, gravimetric); conditions: for Solubility, Average: average of three determinations; for Solubility compared to oclacitinib maleate form A: form A normalized to 100% (FIG. 16); for Solubility: single determination, saturated solution, 15 minutes stirring (600 rpm), 15 minute equilibrium, 0.2 μm filter
Procedure: The thermodynamic solubility of different forms of oclacitinib maleate was tested by generating a saturated solution for each form (i.e. oclacitinib maleate form A, amorphous oclacitinib maleate and monohydrate form of oclacitinib maleate). After 15 minutes of stirring (600 rpm) and further 15 minute of an equilibrium phase the solution was filtrated over an 0.2 μm syringe filter into a vial with a known weight.
Subsequently, the solvent was allowed to evaporate and the vial was then weighted again.

[4] = relatively high humidity, 25° C. at 100% rH
[5] = relatively high humidity, 40° C. at 75% rH
[6] = relatively low humidity, 25° C. at 0% rH

Row | Solid form found after storage ([1]; 25° C./0% rH, Week 1) | Solid form found after storage ([1]; 25° C./0% rH, Week 4) | Solid form found after storage ([1]; 25° C./100% rH, Week 1) | Solid form found after storage ([1]; 25° C./100% rH, Week 4) | Solid form found after storage ([1]; 40° C./75% rH, Week 1) | Solid form found after storage ([1]; 40° C./75% rH, Week 4) | Solubility, Average [3] [mg/mL] | SMILES | Solubility [3] | other results
1 |  |  |  |  |  |  |  | CNS(=O)(=O)C[C@H]1CC[C@H](N(C)c2ncnc3[nH]ccc23)CC1 [example 8, amorphous oclacitinib maleate] |  | Change of solid state on storage (XRPD) ([1]; 25° C. at 0% rH, after 2 weeks): remains stable; Change of solid state on storage (XRPD) ([1]; 25° C. at 25% rH, 3 weeks): does not show any change of solid state; Change of solid state on storage (XRPD) ([1]; 25° C. at 100% rH, after 2 weeks): conversion (intermediate graphs) of the amorphous phase to the monohydrate form of oclacitinib maleate; Change of solid state on storage (XRPD) ([1]; 40° C. at 75% rH, after 2 weeks): conversion (intermediate graphs) of the amorphous phase to the monohydrate form of oclacitinib maleate
2 | Form B | Form A | Form B | Form B | Form B | Form B |  | CNS(=O)(=O)C[C@H]1CC[C@H](N(C)c2ncnc3[nH]ccc23)CC1 [oclacitinib maleate form B] |  | Solid form found after storage ([1]; 25° C./0% rH, Week 12): Form A; Solid form found after storage ([1]; 25° C./100% rH, Week 12): Form B; Solid form found after storage ([1]; 40° C./75% rH, Week 12): Form B; Relative humidity at which the solid form is stable / can be stored [1]: at least 30%; Stability of solid form [1, 4]: is stable; Stability of solid form [1, 5]: is stable; Stability of solid form [1, 6]: converses into oclacitinib maleate form A; Hygroscopicity [2]: non-hygroscopic
3 | Monohydrate | Monohydrate | Monohydrate | Monohydrate | Monohydrate | Monohydrate | 8.994 | CNS(=O)(=O)C[C@H]1CC[C@H](N(C)c2ncnc3[nH]ccc23)CC1 [monohydrate form of oclacitinib maleate] | 9.053 mg/mL and 9.047 mg/mL and 8.884 mg/mL | Solubility compared to oclacitinib maleate form A [3]: halved; Stability of solid form ([1]; all three storage conditions (25° C./0% rH, 40° C./75% rH, 25° C./100% rH)): stable under all storage conditions; Stability of solid state with respect to relative humidity, in words ([1]; low (<50% rH) and high (>50% rH) relative humidity): stable by any relative humidity of the surrounding air
4 | TMU solvate | TMU solvate | Form B | Form B | Form B | Form B |  | CNS(=O)(=O)C[C@H]1CC[C@H](N(C)c2ncnc3[nH]ccc23)CC1 [tetramethyl urea solvate form of oclacitinib maleate] |  | Solid form found after storage ([1]; 25° C./0% rH, Week 12): TMU solvate; Solid form found after storage ([1]; 25° C./100% rH, Week 12): Form B; Solid form found after storage ([1]; 40° C./75% rH, Week 12): Form B; Stability of solid form [1, 4]: converses into oclacitinib maleate form B; Stability of solid form [1, 5]: converses into oclacitinib maleate form B; Stability of solid form [1, 6]: is stable
5 |  |  |  |  |  |  | 37.834 | CNS(=O)(=O)C[C@H]1CC[C@H](N(C)c2ncnc3[nH]ccc23)CC1 [Amorphous, amorphous oclacitinib maleate] | 37.095 mg/mL and 37.430 mg/mL and 38.976 mg/mL | Solubility compared to oclacitinib maleate form A ([3]; listed as amorphous form of oclacitinib maleate): more than twice as soluble
6 |  |  |  |  |  |  | 17.135 | CNS(=O)(=O)C[C@H]1CC[C@H](N(C)c2ncnc3[nH]ccc23)CC1 [Form A, N-methyl(4-(methyl(7H-pyrrolo[2,3-d]pyrimidin-4-yl)amino)cyclohexyl)methanesulfonamide maleic acid salt, reference compound] | 16.914 mg/mL and 16.690 mg/mL and 17.802 mg/mL | Relative humidity at which the solid form is stable / can be stored ([1]; listed as oclacitinib maleate form A): at most 30%
7 |  |  |  |  |  |  |  | CNS(=O)(=O)C[C@H]1CC[C@H](N(C)c2ncnc3[nH]ccc23)CC1 [example 9, amorphous oclacitinib maleate] |  | Change of solid state on storage (XRPD) ([1]; 25° C. at 25% rH, 3 weeks): mixture (upper graph) comprising amorphous oclacitinib maleate and oclacitinib maleate form A
